What was measured:
[1] = test system: African trypanosomiasis (sleeping sickness); conditions: cited from earlier work
[2] = test system: Pneumocystis carinii; assay: Experimental rat model of Pneumocystis carinii pneumonia (PCP); type: in vivo; conditions: for Cysts/hpf in lung at necropsy: high power field 400×
Protocol: Rats were treated in groups of four. […] Doses in all trials were calculated as above.
Treatment regimens were tested in the standard animal model of PCP (6). To induce infection with P. carinii, rats were immunosuppresed with steriods for twelve weeks while restricted to a low-protein diet and tetracycline. Administration of a test regimen was initiated early during the induction period to determine its effectiveness in preventing PCP and was initiated late during the induction period to determine its effectiveness in treating PCP. Male Sprague-Dawley rats weighing 175-225 g were used. Rats were given twice weekly subcutaneous injections of 75 mg/kg of cortisone acetate, were maintained on an 8% protein diet, and were treated with tetracycline via their drinking water. Rats were sacrificed after twelve weeks of this regimen and the extent of infection was judged by counting cysts in toluidine blue 0-stained smears of lung homogenates. Lung homogenates were prepared by combining a weighed portion of tissue with nine ml of 0.1N HCl per g.

[3] = rat, aerosol doses greatly exceeding the therapeutic dose; cited from earlier work
[4] = Trial I, 0.4 mg/kg aerosol weekly, wk 5-11, mean ± standard deviation
[5] = Trial I, 4.0 mg/kg IM weekly, wk 5-11, mean ± standard deviation
[6] = Trial I, prophylactic aerosol 0.4 mg/kg weekly, weeks 5-11
[7] = Trial II, 0.2 mg/kg aerosol weekly, wk 7-11, mean ± standard deviation
[8] = Trial II, 0.4 mg/kg aerosol daily, 4×, wk 10, mean ± standard deviation
[9] = Trial III, 0.4 mg/kg aerosol biweekly, wks 7, 9, 11, mean ± standard deviation
[10] = Trial III, 0.4 mg/kg aerosol daily, 4×, wk 12, mean ± standard deviation
[11] = Trial III, 0.8 mg/kg aerosol monthly, wks 4, 8, mean ± standard deviation

N=C(N)c1ccc(OCCCCCOc2ccc(C(=N)N)cc2)cc1 [pentamidine, Pentamidine isethionate]
resistance to infection after a single IM dose ([1]; human volunteers, weekly bites from infected tse-tse flies): resisted infection for one year or more
chemoprophylaxis of African trypanosomiasis ([1]; human): effective in the chemoprophylaxis of African trypanosomiasis
elimination of infection in endemic areas ([1]; twice-yearly IV or IM doses, Africa): eliminated the infection in endemic areas
Cysts/hpf in lung at necropsy ([2]; Trial I, 0.4 mg/kg aerosol weekly, wk 5-11): < 1 Cysts/hpf
Lung weight at necropsy [2, 4]: 1.94 ± 0.21 g
Pent in lung at necropsy [2, 4]: 29.7 ± 7.1 µg/g
Cysts/hpf in lung at necropsy [2, 5]: 102 ± 88 Cysts/hpf
Lung weight at necropsy [2, 5]: 3.28 ± 1.15 g
Pent in lung at necropsy [2, 5]: 4.5 ± 1.7 µg/g
effectiveness in prevention of PCP, aerosol versus IM ([2]; Trial I, aerosol 0.4 mg/kg vs IM 4.0 mg/kg weekly): more effective in prevention of PCP than tenfold higher doses of IM pentamidine
cysts of P. carinii in stained smears of lung homogenates [2, 6]: rare or absent
lung weight and appearance [2, 6]: normal in weight and appearance
severity of infection versus control animals [2, 6]: more than a thousandfold less severe infection than was seen in control animals
Lung weight at necropsy [2, 7]: 1.43 ± 0.31 g
Pent in lung at necropsy [2, 7]: 15.2 ± 5.0 µg/g
Cysts/hpf in lung at necropsy [2, 8]: 20.8 ± 30.8 Cysts/hpf
Lung weight at necropsy [2, 8]: 1.20 ± 0.20 g
Pent in lung at necropsy [2, 8]: 15.8 ± 10.9 µg/g
effectiveness of prophylactic regimen ([2]; Trial II, aerosol weekly, weeks 7-11, 0.1 mg/kg): effective
Cysts/hpf in lung at necropsy [2, 9]: 48 ± 109 Cysts/hpf
Lung weight at necropsy [2, 9]: 1.41 ± 0.64 g
Pent in lung at necropsy [2, 9]: 13.4 ± 7.9 µg/g
Cysts/hpf in lung at necropsy [2, 10]: 188 ± 255 Cysts/hpf
Lung weight at necropsy [2, 10]: 2.08 ± 0.68 g
Pent in lung at necropsy [2, 10]: 8.3 ± 6.4 µg/g
Cysts/hpf in lung at necropsy [2, 11]: 4.6 ± 4.2 Cysts/hpf
Lung weight at necropsy [2, 11]: 1.26 ± 0.26 g
Pent in lung at necropsy [2, 11]: 16.1 ± 3.3 µg/g
effectiveness of prophylactic regimens ([2]; Trial III, aerosol 0.8 mg/kg monthly and 0.4 mg/kg biweekly): effective
prevention of PCP in the animal model ([2]; low and infrequent aerosol treatment): highly effective in prevention of PCP
retention of aerosol pentamidine ([2]; normal animals and early prophylactic doses vs animals treated with severe pneumonia): greater in normal animals and in animals that received early prophylactic doses than it was in animals who were treated when they had severe pneumonia
effectiveness of therapeutic regimen ([2]; rat, in vivo): partially effective
number of cysts versus lung pentamidine concentration ([2]; within the prophylaxis and treatment groups): the lowest number of cysts were found in animals with the highest concentrations of pentamidine in the lung
toxicity in histopathologic sections from the lungs [3]: No toxicity was seen

From US5262157A (priority 1988, dated 1993)
